Test results as given in ChEMBL document CHEMBL1201862, “PubChem BioAssay data set” (2004).
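Where inhibition never reached the appropriate level, the endpoint shown equals the highest concentration tested. Otherwise, values were interpolated linearly from a five-concentration, 48-hour dose response in 96-well plates. At the GI50, growth is halved.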 Active and inactive are the calls of the source. Rule as the data show it: active = GI50 up to about 1.1 µM and inactive = higher.

Key:
Assay in all cases: growth of human tumour cells (NCI), 48 h
[1] = test system: 786-0
[2] = test system: A549
[3] = test system: ACHN
[4] = test system: CAKI-1
[5] = test system: CCRF-CEM
[6] = test system: COLO 205
[7] = test system: DLD-1
[8] = test system: DMS-114
[9] = test system: DMS-273
[10] = test system: EKVX
[11] = test system: HCT-116
[12] = test system: HCT-15
[13] = test system: HL-60
[14] = test system: HOP-18
[15] = test system: HOP-62
[16] = test system: HOP-92
[17] = test system: HT-29
[18] = test system: IGROV-1
[19] = test system: K562
[20] = test system: KM-20L2
[21] = test system: LOX IMVI
[22] = test system: M14
[23] = test system: M19-MEL
[24] = test system: MOLT-4
[25] = test system: Malme-3M
[26] = test system: NCI-H23
[27] = test system: NCI-H460
[28] = test system: OVCAR-3
[29] = test system: OVCAR-4
[30] = test system: OVCAR-8
[31] = test system: RPMI-8226
[32] = test system: RXF 393
[33] = test system: SF-295
[34] = test system: SF-539
[35] = test system: SK-MEL-28
[36] = test system: SK-MEL-2
[37] = test system: SK-MEL-5
[38] = test system: SK-OV-3
[39] = test system: SN12C
[40] = test system: SNB-19
[41] = test system: SNB-75
[42] = test system: SNB-78
[43] = test system: SW-620
[44] = test system: TK-10
[45] = test system: U-251
[46] = test system: UACC-257
[47] = test system: UACC-62
[48] = test system: UO-31
[49] = test system: XF498
[50] = test system: A498
[51] = test system: HCC 2998
[52] = test system: KM12
[53] = test system: LXFL 529
[54] = test system: NCI-H226
[55] = test system: NCI-H522
[56] = test system: SF-268
[57] = test system: SR

Measured: GI50

COc1ccc(C2c3cc4c(cc3OC(O)(CO)C2C(=O)O)OCO4)c(OC)c1OC.COc1ccc(C2c3cc4c(cc3OC3(O)COC(=O)C23)OCO4)c(OC)c1OC (centres undefined)
inactive: [1] > 100 µM | [2] > 100 µM | [3] > 100 µM | [4] 65.8 µM | [5] 39.4 µM | [6] > 100 µM | [7] > 100 µM | [8] > 100 µM | [9] > 100 µM | [10] > 100 µM | [11] > 100 µM | [13] 45 µM | [14] > 100 µM | [15] > 100 µM | [16] 29.2 µM | [17] > 100 µM | [18] > 100 µM | [19] 46.2 µM | [20] > 100 µM | [21] > 100 µM | [22] > 100 µM | [23] > 100 µM | [24] > 100 µM | [25] > 100 µM | [26] > 100 µM | [27] > 100 µM | [28] > 100 µM | [29] > 100 µM | [30] > 100 µM | [31] > 100 µM | [32] 74 µM | [33] > 100 µM | [34] > 100 µM | [35] > 100 µM | [36] > 100 µM | [37] > 100 µM | [38] > 100 µM | [39] > 100 µM | [40] > 100 µM | [41] 75.2 µM | [42] 59.2 µM | [43] > 100 µM | [44] > 100 µM | [45] > 100 µM | [46] > 100 µM | [47] > 100 µM | [48] > 100 µM | [49] > 100 µM
> 100 µM: [12]

CC(Oc1ccc2c(=O)cc(-c3ccccc3)oc2c1)C(=O)O (centres undefined)
inactive: [1] > 100 µM | [50] > 100 µM | [2] > 100 µM | [3] > 100 µM | [4] > 100 µM | [5] > 100 µM | [6] > 100 µM | [7] > 100 µM | [8] > 100 µM | [10] > 100 µM | [51] > 100 µM | [11] > 100 µM | [13] > 100 µM | [14] > 100 µM | [15] > 100 µM | [16] > 100 µM | [17] > 100 µM | [18] > 100 µM | [19] > 100 µM | [20] > 100 µM | [52] > 100 µM | [21] > 100 µM | [53] > 100 µM | [22] > 100 µM | [23] > 100 µM | [24] > 100 µM | [25] > 100 µM | [54] > 100 µM | [26] > 100 µM | [27] > 100 µM | [55] > 100 µM | [28] > 100 µM | [29] > 100 µM | [30] > 100 µM | [32] > 100 µM | [56] > 100 µM | [33] > 100 µM | [34] > 100 µM | [35] > 100 µM | [37] > 100 µM | [38] > 100 µM | [39] > 100 µM | [40] > 100 µM | [41] > 100 µM | [42] > 100 µM | [57] > 100 µM | [43] > 100 µM | [44] > 100 µM | [45] > 100 µM | [46] > 100 µM | [47] > 100 µM | [48] > 100 µM | [49] > 100 µM

COc1ccc(NC(=O)COC(=O)c2cccc3c(=O)c4ccccc4[nH]c23)cc1
inactive: [1] 19.1 µM | [50] 11.3 µM | [2] 20.3 µM | [3] 21.1 µM | [4] 19.5 µM | [5] 13.8 µM | [6] 17.8 µM | [7] 13.9 µM | [8] 17.2 µM | [10] 18.4 µM | [51] 51.1 µM | [11] 12.9 µM | [13] 13.1 µM | [14] 27 µM | [15] 23.8 µM | [16] 25.1 µM | [17] 16 µM | [18] 27.4 µM | [19] 17.2 µM | [20] 21.5 µM | [52] 16.9 µM | [21] 15 µM | [53] 17.3 µM | [22] 29.6 µM | [23] 19.2 µM | [24] 14.2 µM | [25] 23.4 µM | [54] 23.1 µM | [26] 15.1 µM | [55] 17.9 µM | [28] 22.1 µM | [29] 17.9 µM | [30] 22.4 µM | [32] 15.3 µM | [56] 22.3 µM | [33] 19.5 µM | [34] 18.1 µM | [35] 30.8 µM | [37] 15.3 µM | [38] 30.2 µM | [39] 27.5 µM | [40] 30.1 µM | [41] 21 µM | [42] 22.1 µM | [57] 11.3 µM | [43] 22.2 µM | [44] 15.8 µM | [45] 19.5 µM | [46] 19.9 µM | [47] 17.7 µM | [48] 14.8 µM | [49] 19.9 µM
